This is an account of results in patent publication US7265120B2, “Pyrazine derivatives and pharmaceutical use thereof” (Astellas Pharma Inc., priority 2004, dated 2007).

Some results are limits rather than exact numbers.

The molecule `CC(C)n1nc(-c2nc(C#Cc3ccccn3)c(N)nc2-c2ccccc2)ccc1=O` [Example 74, 6-[5-amino-3-phenyl-6-(2-pyridylethynyl)-2-pyrazinyl]-2-isopropyl-3(2H)-pyridazinone] gave a melting point of 245.5 to 247 °C.

For `C#Cc1nc(-c2ccc(=O)n(C(C)C)n2)c(-c2ccccc2)nc1N` [Example 76, 6-(5-amino-6-ethynyl-3-phenyl-2-pyrazinyl)-2-isopropyl-3(2H)-pyridazinone], the melting point is 217 °C (dec.).

In turn, `Cn1nc(-c2nc(C#Cc3ccccc3)c(N)nc2-c2ccccc2)ccc1=O` [Example 77, 6-[5-amino-3-phenyl-6-(phenylethynyl)-2-pyrazinyl]-2-methyl-3(2H)-pyridazinone] registered a melting point of 234 to 236 °C. As to `CC(C)n1nc(-c2nc(-c3ccccc3)c(N)nc2-c2ccccc2)ccc1=O` [Example 78, 6-(5-amino-3,6-diphenyl-2-pyrazinyl)-2-isopropyl-3(2H)-pyridazinone], the melting point was 225 to 226 °C. Take `CC(C)n1nc(-c2nc(-c3ccsc3)c(N)nc2-c2ccccc2)ccc1=O` [Example 79, 6-[5-amino-3-phenyl-6-(3-thienyl)-2-pyrazinyl]-2-isopropyl-3(2H)-pyridazinone]: the melting point lay in the range of 228 to 230 °C. In the case of `CC(C)n1nc(-c2nc(-c3cccs3)c(N)nc2-c2ccccc2)ccc1=O` [Example 80, 6-[5-amino-3-phenyl-6-(2-thienyl)-2-pyrazinyl]-2-isopropyl-3(2H)-pyridazinone] it was 181 to 183 °C; in that of `CC(C)n1nc(-c2nc(-c3ccoc3)c(N)nc2-c2ccccc2)ccc1=O` [Example 81, 6-[5-amino-6-(3-furyl)-3-phenyl-2-pyrazinyl]-2-isopropyl-3(2H)-pyridazinone], 233 to 235 °C.

`CC(C)n1nc(-c2nc(-c3ccncc3)c(N)nc2-c2ccccc2)ccc1=O` [Example 82, 6-[5-amino-3-phenyl-6-(4-pyridyl)-2-pyrazinyl]-2-isopropyl-3(2H)-pyridazinone] gave a melting point of 222 to 224 °C. For the molecule `COc1ccc(-c2nc(-c3ccc(=O)n(C(C)C)n3)c(-c3ccccc3)nc2N)cn1` [Example 83, 6-[5-amino-6-(6-methoxy-3-pyridyl)-3-phenyl-2-pyrazinyl]-2-isopropyl-3(2H)-pyridazinone], the melting point is 230 to 232.5 °C. For `CC(C)n1nc(-c2nc(-c3cccnc3)c(N)nc2-c2ccccc2)ccc1=O` [Example 84, 6-[5-amino-3-phenyl-6-(3-pyridyl)-2-pyrazinyl]-2-isopropyl-3(2H)-pyridazinone], the melting point is 224 to 225.5 °C. The figure for `Cn1nc(-c2nc(-c3ccccc3)c(N)nc2-c2ccccc2)ccc1=O` [Example 85, 6-(5-amino-3,6-diphenyl-2-pyrazinyl)-2-methyl-3(2H)-pyridazinone] is 220 to 221.5 °C. Take `Cn1nc(-c2nc(-c3cccs3)c(N)nc2-c2ccccc2)ccc1=O` [Example 86, 6-[5-amino-3-phenyl-6-(2-thienyl)-2-pyrazinyl]-2-methyl-3(2H)-pyridazinone]: the melting point is 177 °C (dec.). `CC(C)n1nc(-c2nc(/C=C/c3ccccc3)c(N)nc2-c2ccccc2)ccc1=O` [Example 87, 6-{5-amino-3-phenyl-6-[(E)-2-phenylvinyl]-2-pyrazinyl}-2-isopropyl-3(2H)-pyridazinone]: the melting point was 244.5 to 245 °C. `CC(C)n1nc(-c2nc(-c3ccco3)c(N)nc2-c2ccccc2)ccc1=O` [Example 88, 6-[5-amino-6-(2-furyl)-3-phenyl-2-pyrazinyl]-2-isopropyl-3(2H)-pyridazinone] came in with a melting point of 211 to 213 °C. For `Cn1nc(-c2nc(-c3ccco3)c(N)nc2-c2ccccc2)ccc1=O` [Example 89, 6-[5-amino-6-(2-furyl)-3-phenyl-2-pyrazinyl]-2-methyl-3(2H)-pyridazinone], the melting point was in the range of 186 to 188 °C. Turning to `CC(C)n1nc(-c2nc(-c3cn[nH]c3)c(N)nc2-c2ccccc2)ccc1=O` [Example 90, 6-[5-amino-3-phenyl-6-(1H-pyrazol-4-yl)-2-pyrazinyl]-2-isopropyl-3(2H)-pyridazinone], the melting point is above 250 °C. On to `CC(C)n1nc(-c2nc(C3=CCCN(C)C3)c(N)nc2-c2ccccc2)ccc1=O` [Example 92, 6-[5-amino-6-(1-methyl-1,2,5,6-tetrahydro-3-pyridyl)-3-phenyl-2-pyrazinyl]-2-isopropyl-3(2H)-pyridazinone], for which the melting point fell in the range of 191 to 193 °C.

Molecule `CC(C)n1nc(-c2nc(-c3cnn(C)c3)c(N)nc2-c2ccccc2)ccc1=O` [Example 93, 6-[5-amino-6-(1-methyl-1H-pyrazol-4-yl)-3-phenyl-2-pyrazinyl]-2-isopropyl-3(2H)-pyridazinone] gave a melting point of 201 to 203 °C. The figure for `CC(=O)c1nc(-c2ccc(=O)n(C(C)C)n2)c(-c2ccccc2)nc1N` [Example 94, 6-(6-acetyl-5-amino-3-phenyl-2-pyrazinyl)-2-isopropyl-3(2H)-pyridazinone] is 234 to 236.5 °C; for `CCOC(=O)C=Cc1nc(-c2ccc(=O)n(C(C)C)n2)c(-c2ccccc2)nc1N` [Example 95, ethyl 3-[3-amino-6-(1-isopropyl-6-oxo-1,6-dihydro-3-pyridazinyl)-5-phenyl-2-pyrazinyl]acrylate] it is 233 to 236 °C. Take `CC(C)n1nc(-c2nc(NCc3ccccc3)c(N)nc2-c2ccccc2)ccc1=O` [Example 96, 6-[5-amino-6-(benzylamino)-3-phenyl-2-pyrazinyl]-2-isopropyl-3(2H)-pyridazinone]: the melting point lay within 181 to 183.5 °C. Consider `CC(C)n1nc(-c2nc(N(C)C)c(N)nc2-c2ccccc2)ccc1=O` [Example 96, 6-[5-amino-6-(dimethylamino)-3-phenyl-2-pyrazinyl]-2-isopropyl-3(2H)-pyridazinone], for which the melting point lay in the range of 174 to 176 °C.

Regarding `COc1ccc(CNc2nc(-c3ccc(=O)n(C(C)C)n3)c(-c3ccccc3)nc2N)cc1` [Example 97, 6-{5-amino-6-[(4-methoxybenzyl)amino]-3-phenyl-2-pyrazinyl}-2-isopropyl-3(2H)-pyridazinone], the melting point fell in the range of 188.5 to 191.5 °C. For `CC(C)n1nc(-c2nc(NCc3ccccn3)c(N)nc2-c2ccccc2)ccc1=O` [Example 98, 6-{5-amino-3-phenyl-6-[(2-pyridylmethyl)amino]-2-pyrazinyl}-2-isopropyl-3(2H)-pyridazinone], the melting point lay in the range of 192 to 194 °C. Consider `CCCCNc1nc(-c2ccc(=O)n(C(C)C)n2)c(-c2ccccc2)nc1N` [Example 99, 6-[5-amino-6-(butylamino)-3-phenyl-2-pyrazinyl]-2-isopropyl-3(2H)-pyridazinone], for which the melting point lay in the range of 200 to 202 °C. For `CCCCNc1nc(-c2ccc(=O)n(C)n2)c(-c2ccccc2)nc1N` [Example 100, 6-[5-amino-6-(butylamino)-3-phenyl-2-pyrazinyl]-2-methyl-3(2H)-pyridazinone], the melting point was 253 to 255 °C. Consider `C=CCNc1nc(-c2ccc(=O)n(C(C)C)n2)c(-c2ccccc2)nc1N` [Example 101, 6-[6-(allylamino)-5-amino-3-phenyl-2-pyrazinyl]-2-isopropyl-3(2H)-pyridazinone], for which the melting point lay within 208 to 210 °C.

Broadly, the melting point is the temperature, or range, at which the solid turns liquid.
